In patent US10941158B2, “Pyrazole ACC inhibitors and uses thereof” (Gilead Apollo, LLC, priority 2015, dated 2021):
≈ marks a conversion by molar mass, not a printed value. Read-outs that look alike come from different tables or passages of the source.

Columns and labels:
human (hACC2) ACC2 = human (hACC2) ACC2 (Homo sapiens, UniProt O00763); test: In vitro Acetyl-CoA Carboxylase (ACC) inhibition assay (ADP-Glo), hACC2; type: biochemical
Procedure: The detailed procedure is as follows. […] 10 μL ADP glo reagent was added. […] 20 μL kinase detection reagent was added.
“NA” stands for “not assayed.”

fungal (fACC2) ACC2 = fungal (fACC2) ACC2 (UniProt Q00955); details: read-out: fACC2 IC50; fungal ACC2, ADP-Glo
fungal (fACC2) ACC2, sequence (Q00955 whole entry): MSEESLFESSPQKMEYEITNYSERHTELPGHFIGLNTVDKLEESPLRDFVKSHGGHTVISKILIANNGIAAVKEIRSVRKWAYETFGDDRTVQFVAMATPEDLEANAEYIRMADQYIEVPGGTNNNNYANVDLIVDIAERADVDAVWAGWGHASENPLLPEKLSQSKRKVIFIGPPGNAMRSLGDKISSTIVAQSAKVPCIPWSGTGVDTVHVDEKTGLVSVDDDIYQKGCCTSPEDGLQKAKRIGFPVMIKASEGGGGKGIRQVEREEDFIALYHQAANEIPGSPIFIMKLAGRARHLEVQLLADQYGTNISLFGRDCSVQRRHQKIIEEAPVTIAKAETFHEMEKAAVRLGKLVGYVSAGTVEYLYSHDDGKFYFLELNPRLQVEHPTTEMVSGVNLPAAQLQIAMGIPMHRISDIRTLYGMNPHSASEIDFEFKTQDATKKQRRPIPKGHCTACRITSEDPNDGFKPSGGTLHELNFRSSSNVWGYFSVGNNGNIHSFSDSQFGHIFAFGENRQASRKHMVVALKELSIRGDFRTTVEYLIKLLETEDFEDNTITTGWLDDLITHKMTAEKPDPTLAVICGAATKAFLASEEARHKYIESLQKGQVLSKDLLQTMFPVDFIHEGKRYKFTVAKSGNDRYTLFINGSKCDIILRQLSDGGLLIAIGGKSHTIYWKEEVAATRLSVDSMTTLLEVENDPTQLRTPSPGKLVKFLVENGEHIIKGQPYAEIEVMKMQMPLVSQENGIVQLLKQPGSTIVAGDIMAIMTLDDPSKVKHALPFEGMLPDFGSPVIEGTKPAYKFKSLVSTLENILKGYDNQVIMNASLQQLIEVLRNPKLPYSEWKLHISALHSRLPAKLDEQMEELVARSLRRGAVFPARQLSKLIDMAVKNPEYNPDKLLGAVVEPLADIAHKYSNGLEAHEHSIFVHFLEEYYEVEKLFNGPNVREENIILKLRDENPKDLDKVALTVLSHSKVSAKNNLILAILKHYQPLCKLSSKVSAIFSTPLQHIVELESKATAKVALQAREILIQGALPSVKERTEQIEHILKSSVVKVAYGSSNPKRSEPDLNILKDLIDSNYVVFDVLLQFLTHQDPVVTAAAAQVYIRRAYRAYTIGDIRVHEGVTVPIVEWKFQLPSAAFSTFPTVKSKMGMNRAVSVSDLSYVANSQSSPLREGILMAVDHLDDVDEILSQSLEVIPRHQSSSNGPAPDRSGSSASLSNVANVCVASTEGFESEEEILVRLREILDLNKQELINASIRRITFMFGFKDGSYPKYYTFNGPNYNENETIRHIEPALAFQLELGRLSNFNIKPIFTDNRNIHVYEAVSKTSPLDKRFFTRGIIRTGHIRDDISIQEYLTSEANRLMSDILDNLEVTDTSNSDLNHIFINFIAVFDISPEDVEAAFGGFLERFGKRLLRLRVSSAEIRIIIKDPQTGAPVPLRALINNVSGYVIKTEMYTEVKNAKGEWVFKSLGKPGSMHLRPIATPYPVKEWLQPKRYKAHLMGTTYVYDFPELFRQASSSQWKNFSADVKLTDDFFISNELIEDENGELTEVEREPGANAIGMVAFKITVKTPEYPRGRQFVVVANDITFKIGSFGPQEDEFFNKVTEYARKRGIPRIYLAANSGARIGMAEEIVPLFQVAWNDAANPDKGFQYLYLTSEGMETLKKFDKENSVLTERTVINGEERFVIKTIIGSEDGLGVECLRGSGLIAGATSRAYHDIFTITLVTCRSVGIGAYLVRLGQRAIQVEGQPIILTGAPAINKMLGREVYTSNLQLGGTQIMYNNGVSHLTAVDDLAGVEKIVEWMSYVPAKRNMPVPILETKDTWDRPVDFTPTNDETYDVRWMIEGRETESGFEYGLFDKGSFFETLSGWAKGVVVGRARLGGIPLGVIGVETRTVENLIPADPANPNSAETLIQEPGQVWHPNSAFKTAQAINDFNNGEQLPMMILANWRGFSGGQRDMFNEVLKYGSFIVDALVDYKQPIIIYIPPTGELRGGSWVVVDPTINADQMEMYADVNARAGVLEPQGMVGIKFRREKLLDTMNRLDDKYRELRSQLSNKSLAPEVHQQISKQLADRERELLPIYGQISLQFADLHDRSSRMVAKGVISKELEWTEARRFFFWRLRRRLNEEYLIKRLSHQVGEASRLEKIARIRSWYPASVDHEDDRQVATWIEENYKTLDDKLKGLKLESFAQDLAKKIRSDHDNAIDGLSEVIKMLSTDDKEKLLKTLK

[1] = test system: C. parapsilosis ATCC 22019; test: Anti-Fungal (Candida) Activity Assay, broth microtiter MIC; type: cell-based; details: Lodderomyces parapsilosis, ATCC22019; 3 replicates, MIC recorded at 48 h; read-out: MIC C. parapsilosis ATCC 22019
In short: (§1)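 In CLSI M27-A3 microtiter plates, yeast from overnight agar culture is inoculated in RPMI 1640–MOPS at a standard-curve density. The MIC is the endpoint scored visually against growth control at 48 h.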

C. albicans ATCC 90028 = test: as above; type: cell-based; details: ATCC90028, 3 replicates, MIC recorded at 48 h, read-out: MIC C. albicans ATCC 90028
In short: as §1

C. krusei ATCC 6258 = test: as above; type: cell-based; details: Pichia kudriavzevii, ATCC6258; 3 replicates, MIC recorded at 48 h; read-out: MIC C. krusei ATCC 6258
In short: as §1

[2] = test system: Collectotrichum graminicola (Cg); test: Growth inhibition assay of fungal pathogens; type: cell-based; details: 48 h, Table 4b, read-out: Concentration at 90% Inhibition Cg
In short: (§2)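 Liquid-culture assay in which test compounds are applied at three final concentrations (50, 10, 2 ppm or 2, 0.4, 0.08 ppm). Inoculum levels follow 48 h growth curves for each fungus. Growth is monitored by OD600 and by eye, and the 48 h values give % inhibition against DMSO.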

[3] = test system: Fusarium moniliforme (Fm); test: Growth inhibition assay of fungal pathogens; type: cell-based; details: Fusarium verticillioides, 48 h, read-out: Concentration at 90% Inhibition Fm
In short: (§3)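 Compounds in DMSO tested at final 50, 10, 2 ppm or 2, 0.4, 0.08 ppm. Spores in 17% V8 medium, or 1.5 mm mycelial plugs in ¼ PDB for R. solani, incubated with compound. OD600 and visual ratings at 48 h versus 2% DMSO control gave percent growth inhibition.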

Rhizoctonia solani (Rs) = test: Growth inhibition assay of fungal pathogens; type: cell-based; details: 48 h, Table 4b, read-out: Concentration at 90% Inhibition Rs
In short: as §3

[4] = test system: Phytophthora capsici (Pc); test: Growth inhibition assay of fungal pathogens; type: cell-based; details: Phytophthora capsici, Table 4b, read-out: Concentration at 90% Inhibition Pc
In short: as §2

Septoria tritici (St) = test: Growth inhibition assay of fungal pathogens; type: cell-based; details: Zymoseptoria tritici, Table 4b, read-out: Concentration at 90% Inhibition St
In short: as §2

Botrtyis cinerea (Bc) = test: Growth inhibition assay of fungal pathogens; type: cell-based; details: 48 h, Table 4b, read-out: Concentration at 90% Inhibition Bc
In short: as §3

Diplodia maydis (Dm) = test: Growth inhibition assay of fungal pathogens; type: cell-based; details: Stenocarpella maydis, 48 h, Table 4b, read-out: Concentration at 90% Inhibition Dm
In short: as §3

[5] = test system: Fusarium virguliforme (Fv); test: Growth inhibition assay of fungal pathogens; type: cell-based; details: 48 h
In short: as §2

[6] = Table 4b, 48 hours, read-out: Concentration at 90% Inhibition Fv

human (hACC2) ACC2, sequence (O00763 whole entry): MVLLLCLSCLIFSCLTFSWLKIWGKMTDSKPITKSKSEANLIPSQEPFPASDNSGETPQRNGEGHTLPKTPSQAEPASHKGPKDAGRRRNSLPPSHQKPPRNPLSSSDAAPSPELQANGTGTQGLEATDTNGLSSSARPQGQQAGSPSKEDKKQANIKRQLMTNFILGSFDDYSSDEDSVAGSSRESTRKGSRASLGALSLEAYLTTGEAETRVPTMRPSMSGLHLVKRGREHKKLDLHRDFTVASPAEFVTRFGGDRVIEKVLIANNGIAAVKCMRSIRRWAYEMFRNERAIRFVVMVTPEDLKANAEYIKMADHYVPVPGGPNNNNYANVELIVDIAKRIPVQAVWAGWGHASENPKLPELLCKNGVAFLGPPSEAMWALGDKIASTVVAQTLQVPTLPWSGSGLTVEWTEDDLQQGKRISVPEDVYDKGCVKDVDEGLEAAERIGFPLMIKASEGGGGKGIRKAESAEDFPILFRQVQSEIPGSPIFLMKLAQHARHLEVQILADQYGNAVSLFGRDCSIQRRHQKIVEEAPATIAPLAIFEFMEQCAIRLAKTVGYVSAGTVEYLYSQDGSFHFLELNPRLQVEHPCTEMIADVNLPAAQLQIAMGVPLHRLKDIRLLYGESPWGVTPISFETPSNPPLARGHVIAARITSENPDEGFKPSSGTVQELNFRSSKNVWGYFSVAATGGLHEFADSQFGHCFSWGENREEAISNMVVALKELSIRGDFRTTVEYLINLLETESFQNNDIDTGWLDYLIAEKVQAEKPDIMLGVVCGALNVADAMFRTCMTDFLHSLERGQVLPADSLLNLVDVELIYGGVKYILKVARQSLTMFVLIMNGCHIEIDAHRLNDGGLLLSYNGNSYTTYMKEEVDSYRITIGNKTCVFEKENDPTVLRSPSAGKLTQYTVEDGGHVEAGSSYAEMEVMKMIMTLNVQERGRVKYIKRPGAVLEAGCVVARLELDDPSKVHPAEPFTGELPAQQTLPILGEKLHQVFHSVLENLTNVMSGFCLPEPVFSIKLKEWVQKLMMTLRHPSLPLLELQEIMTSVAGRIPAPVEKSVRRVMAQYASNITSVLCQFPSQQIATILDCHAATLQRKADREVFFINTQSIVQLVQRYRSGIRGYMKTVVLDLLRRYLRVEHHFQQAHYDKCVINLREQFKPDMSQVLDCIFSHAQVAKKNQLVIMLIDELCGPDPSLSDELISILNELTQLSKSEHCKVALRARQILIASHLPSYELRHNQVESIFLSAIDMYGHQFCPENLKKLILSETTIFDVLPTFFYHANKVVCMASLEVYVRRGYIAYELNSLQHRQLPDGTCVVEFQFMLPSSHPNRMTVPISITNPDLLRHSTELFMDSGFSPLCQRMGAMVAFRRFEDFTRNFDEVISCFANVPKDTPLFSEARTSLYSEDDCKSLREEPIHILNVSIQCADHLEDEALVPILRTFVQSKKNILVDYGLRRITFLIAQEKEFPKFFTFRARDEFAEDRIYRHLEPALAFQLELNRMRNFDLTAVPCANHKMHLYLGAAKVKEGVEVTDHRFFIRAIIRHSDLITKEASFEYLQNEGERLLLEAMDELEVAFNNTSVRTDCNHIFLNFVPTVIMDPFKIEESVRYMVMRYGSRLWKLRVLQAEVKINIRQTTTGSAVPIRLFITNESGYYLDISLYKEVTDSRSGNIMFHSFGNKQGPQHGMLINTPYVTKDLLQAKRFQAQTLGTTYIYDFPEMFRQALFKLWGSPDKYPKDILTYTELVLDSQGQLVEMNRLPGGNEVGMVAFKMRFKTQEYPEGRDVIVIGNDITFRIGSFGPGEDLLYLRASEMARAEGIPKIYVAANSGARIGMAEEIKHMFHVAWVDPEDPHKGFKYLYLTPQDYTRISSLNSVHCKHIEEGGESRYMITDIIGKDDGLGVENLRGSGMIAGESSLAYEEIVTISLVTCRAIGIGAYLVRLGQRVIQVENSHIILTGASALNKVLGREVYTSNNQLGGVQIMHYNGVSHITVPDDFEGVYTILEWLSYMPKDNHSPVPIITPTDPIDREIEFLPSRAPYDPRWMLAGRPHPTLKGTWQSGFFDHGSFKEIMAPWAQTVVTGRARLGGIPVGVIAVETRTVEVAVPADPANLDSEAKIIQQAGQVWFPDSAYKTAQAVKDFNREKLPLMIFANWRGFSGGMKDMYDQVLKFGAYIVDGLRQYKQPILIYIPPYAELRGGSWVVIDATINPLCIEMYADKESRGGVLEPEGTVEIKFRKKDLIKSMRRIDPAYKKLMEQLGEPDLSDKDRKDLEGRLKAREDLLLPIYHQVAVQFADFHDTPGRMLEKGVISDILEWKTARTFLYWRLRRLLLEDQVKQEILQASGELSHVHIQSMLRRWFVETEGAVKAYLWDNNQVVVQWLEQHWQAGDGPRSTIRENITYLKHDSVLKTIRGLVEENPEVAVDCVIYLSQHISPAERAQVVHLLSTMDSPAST

SMILES	IC50 (human (hACC2) ACC2) [nM]	IC50 (fungal (fACC2) ACC2) [nM]	MIC [1] [µg/mL]	MIC (C. albicans ATCC 90028) [µg/mL]	MIC (C. krusei ATCC 6258) [µg/mL]	IC90 [2] [µg/mL]	IC90 ([3]; Table 4b, 48 hours) [µg/mL]	IC90 (Rhizoctonia solani (Rs)) [µg/mL]	IC90 ([4]; 48 hours) [µg/mL]	IC90 (Septoria tritici (St); 48 hours) [µg/mL]	IC90 (Botrtyis cinerea (Bc)) [µg/mL]	IC90 (Diplodia maydis (Dm)) [µg/mL]	IC90 [5, 6] [µg/mL]	IC90 [3] [µg/mL]	IC90 ([4]; 48 h) [µg/mL]	IC90 (Septoria tritici (St); 48 h) [µg/mL]	IC90 ([5]; read-out: Concentration at 90% Inhibition Fv, Table 4b, 48 hours) [µg/mL]
COCCO[C@@H](Cn1c(=O)n(C(C)C(=O)N2CCCC2)c(=O)c2c(C)c(-n3cccn3)sc21)c1cc(F)ccc1OC (mixture of isomers) [Compound I-54, 1-((R)-2-(5-fluoro-2-methoxyphenyl)-2-(2-methoxyethoxy)ethyl)-5-methyl-3-(1-oxo-1-(pyrrolidin-1-yl)propan-2-yl)-6-(1H-pyrazol-1-yl)thieno[2,3-d]pyrimidine-2,4(1H,3H)-dione]	10 to 40	0.6 to 3	> 4.1	> 4.1	> 4.1												
Cc1c(-n2cccn2)sc2c1c(=O)n(C(C)(C)C(=O)NC(C)C)c(=O)n2C[C@H](OC1CCOCC1)c1cc(F)ccc1OCCO [Compound I-48]	3 to 10	0.6 to 3	> 4.1	> 4.1	> 4.1												
COCCOc1ccc(F)cc1[C@H](Cn1c(=O)n(C(C)(C)C(=O)NC(C)C)c(=O)c2c(C)c(-n3cccn3)sc21)OC1CCOCC1 [Compound I-49]	3 to 10	0.6 to 3	> 4.1	> 4.1	1.1 to 2 (≈ 1.64 to 2.98 µM)												
Cc1c(-n2cccn2)sc2c1c(=O)n(C(C)(C)C(=O)NC(C)C)c(=O)n2C[C@H](OC1CCOCC1)c1cc(F)ccc1OCC1COC1 [Compound I-50]	3 to 10	0.6 to 3	> 4.1	> 4.1	> 4.1												
Cc1c(-n2cccn2)sc2c1c(=O)n(C(C)(C)C(=O)N1CCCC1)c(=O)n2C[C@H](OC1CCOCC1)c1cc(F)ccc1OCCO [Compound I-51]	3 to 10	0.6 to 3	2.1 to 4 (≈ 3.14 to 5.97 µM)	1.1 to 2 (≈ 1.64 to 2.99 µM)	0.25 to 1 (≈ 0.373 to 1.49 µM)												
COCCOc1ccc(F)cc1[C@H](Cn1c(=O)n(C(C)(C)C(=O)N2CCCC2)c(=O)c2c(C)c(-n3cccn3)sc21)OC1CCOCC1 [Compound I-52]	3 to 10	0.6 to 3	1.1 to 2 (≈ 1.61 to 2.92 µM)	2.1 to 4 (≈ 3.07 to 5.85 µM)	1.1 to 2 (≈ 1.61 to 2.92 µM)												
Cc1c(-n2cccn2)sc2c1c(=O)n(C(C)(C)C(=O)N1CCCC1)c(=O)n2C[C@H](OC1CCOCC1)c1cc(F)ccc1OCC1COC1 [Compound I-53]	3 to 10	0.6 to 3	2.1 to 4 (≈ 3.02 to 5.75 µM)	> 4.1	1.1 to 2 (≈ 1.58 to 2.87 µM)												
COCCO[C@@H](Cn1c(=O)n([C@@H](C)C(=O)N2CCCC2)c(=O)c2c(C)c(-n3cccn3)sc21)c1cc(F)ccc1OC [Compound I-75, 1-((R)-2-(5-fluoro-2-methoxyphenyl)-2-(2-methoxyethoxy)ethyl)-5-methyl-3-((S)-1-oxo-1-(pyrrolidin-1-yl)propan-2-yl)-6-(1H-pyrazol-1-yl)thieno[2,3-d]pyrimidine-2,4(1H,3H)-dione]	3 to 10	0.6 to 3				2 (≈ 3.34 µM)	0.08 (≈ 0.133 µM)	0.08 (≈ 0.133 µM)	> 50	> 50	2 (≈ 3.34 µM)	2 (≈ 3.34 µM)	0.4 (≈ 0.667 µM)				
COc1ccc(F)cc1[C@H](Cn1c(=O)n(C(C)(C)C(=O)NC(C)C)c(=O)c2c(C)c(-n3cccn3)sc21)OCCC#N [Compound I-78, (R)-2-(1-(2-(2-cyanoethoxy)-2-(5-fluoro-2-methoxyphenyl)ethyl)-5-methyl-2,4-dioxo-6-(1H-pyrazol-1-yl)-1,4-dihydrothieno[2,3-d]pyrimidin-3(2H)-yl)-N-isopropyl-2-methylpropanamide]	10 to 40	0.6 to 3				> 50		10 (≈ 16.8 µM)			10 (≈ 16.8 µM)	> 50		10 (≈ 16.8 µM)	> 50	> 50	> 50
COc1ccccc1[C@H](Cn1c(=O)n(C(C)(C)C(=O)O)c(=O)c2c(C)c(-n3cccn3)sc21)OCCC#N [Compound I-79]	3 to 10	0.6 to 3				0.4 (≈ 0.744 µM)	0.08 (≈ 0.149 µM)	0.08 (≈ 0.149 µM)	> 50	10 (≈ 18.6 µM)	0.4 (≈ 0.744 µM)	0.4 (≈ 0.744 µM)	0.4 (≈ 0.744 µM)				
